# Laboratory results as given in patent publication US20080051464A1, “Protein phosphatase inhibitors” (The Cleveland Clinic Foundation, priority 2006, published 2008).
# What was measured:
# [1] = system: IFNγ+ cells in human peripheral blood; assay: induction of IFNγ+ cells in human peripheral blood in vitro (ELISPOT); type: cell-based
# Method: For induction of human primary IFNγ+ cells, heparinized peripheral blood samples were obtained by vein-puncture from healthy volunteers following an established protocol approved by the Institutional Review Board (IRB) of Cleveland Clinic. To mimic in vivo drug-exposure, human peripheral blood samples were directly treated with different agents without pre-separation of white blood cells from other blood components. Blood samples (0.1 ml/sample) were mixed with the agents, incubated at 37° C. for 4 hrs, diluted with 5 volumes of hypotonic solution (10 mM Tris, pH 7.4; 10 mM NaCl) to lyse RBC and centrifuged to pellet WBCs. The pellets were washed with hypotonic solution one time, re-suspended in RPMI 1640 medium (10% FCS) and used for ELISPOT assays (Human IFNγ ELISPOT Kit, R & D System) to quantify human IFNγ+ cells as outlined above.
# [2] = system: SHP-1 substrate pLck-pY394 in Jurkat T cells; assay: induction of pLck-pY394 in Jurkat cells (SDS-PAGE/Western blotting); type: cell-based, human
# Method: (§1) Jurkat cells in culture medium (3×10^6 cells/ml, 1 ml/tube) were treated with agents for designated times at room temperature. After brief centrifuging in a microfuge (4,000 rpm, 2 min), the cell pellet was lysed on ice for 30 min in 100 μl of cold lysis buffer (1% NP40, 50 mM Tris, pH 7.4, 150 mM NaCl, 20 mM NaF, 0.2 mM Na3VO4 and 1 mM Na3MO4) containing a cocktail of proteinase inhibitors (Sigma, 1 tablet/10 ml). The lysates were cleared by centrifuging (14,000 rpm, 10 min) in a microfuge at 4° C. to remove insoluble parts, mixed with equal volume of 2×SDS-PAGE sample buffer, boiled for 5 min and analyzed (˜3×10^5 cells/well) by SDS-PAGE/Western blotting. Relative intensities of phosphotyrosine bands were quantified through densitometry analysis.
# as §1, with “blotting as described previously (23, 24).” for “blotting.”
# as §1, with “blotting as described previously (17, 18).” for “blotting.”
smiles,measurement,setting,value
O=C1C=CC(=O)C(c2cc(Cl)ccc2Cl)=C1 [L5],maximal induction of IFNγ+ cells in human peripheral blood,[1]; 8 μg/ml,20 fold
same,effectiveness compared with SSG in inducing IFNγ+ cells,"[1]; maximal induction at a comparable dose, human peripheral blood",~20 fold
same,level capable of inhibiting SHP-1 in Jurkat T cells,[2],10 ng/mL
same,level capable of inhibiting SHP-1 in Jurkat T cells (molar),[2],~40 nM
same,pLck-pY394 induction,"[2]; 0.01 μg/ml, 10 min",2-3 fold
same,pLck-pY394 induction,"[2]; 0.1, 1 or 3 μg/ml, 10 min",> 4 folds
same,effective dose for pLck-pY394 induction / intracellular SHP-1 inhibition,"[2]; Jurkat cells, 10 min",≥ 0.01 μg/ml
same,pLck-pY394 induction in comparison to untreated control,"[2]; Jurkat cells, 10 min, densitometry (FIG. 2)",~10 fold
same,potency relative to SSG,[2]; by weight,"approximately 1,000 fold"
same,potency relative to SSG,[2]; in equal molar ratios,~350 fold
